# Assay results reported in US20200071361A1, “ENGINEERED ANTIMICROBIAL AMPHIPHILIC PEPTIDES AND METHODS OF USE” (priority 2017, published 2020).
# How the values were obtained:
# [1] = system: Staphylococcus aureus isolates (n = 104); experiment: Broth microdilution MIC, clinical isolate panel; format: cell-based
# Description: (§1) Comparator antibiotics were supplied by Micromyx, and stock solutions were prepared on the first day of testing using solvents recommended by CLSI (1). Stock solutions of all compounds were made at 40× the final testing concentration and stored at −80° C. prior to testing. Information regarding compound source, catalog and lot number, testing concentrations and drug diluent for the comparators and test agent are detailed below in Table 3.
# (§2) The test organisms evaluated in this study consisted of clinical isolates from the Micromyx Repository and reference isolates from the American Type Culture Collection (ATCC; Manassas, Va.). The clinical isolates were obtained from USA hospitals. Upon initial receipt at Micromyx, the organisms were sub-cultured onto an appropriate agar medium. Following incubation, colonies were harvested from these plates and cell suspensions prepared and frozen at −80° C. with a cryoprotectant. Prior to testing, the isolates were streaked from frozen vials onto Trypticase Soy Agar with 5% sheep blood (Becton Dickenson [BD]; Sparks, Md.; Lot Nos. 7173618, 7166759, 7208688, 72144895, 7228505 and Remel Lenexa, Kans. Lot No. 212574). Plates were incubated at 35° C. overnight.
# (§3) Mueller Hinton II broth (MHB II; BD; Lot Nos. 6258541 and 7143896) was used for MIC testing of aerobic organisms.
# (§4) MIC values were determined using a broth microdilution procedure described by CLSI (1, 3). Automated liquid handlers (Multidrop 384, Labsystems, Helsinki, Finland; Biomek 2000 and Biomek FX, Beckman Coulter, Fullerton Calif.) were used to conduct serial dilutions and liquid transfers.
# (§5) To prepare the drug mother plates, which would provide the serial drug dilutions for the replicate daughter plates, the wells of columns 2-12 of standard 96-well microdilution plates (Costar 3795) were filled with 150 μl of the designated diluent for each row of drug. The test articles and comparator compounds (300 μl at 40× the highest concentration to be tested) were dispensed into the appropriate wells in column 1. The Biomek 2000 was then used to make 2-fold serial dilutions in the mother plates from column 1 through column 11. The wells of Column 12 contained no drug and served as the organism growth control wells for the assay.
# (§6) The daughter plates were loaded with 185 μL per well of MHB II using the Multidrop 384. The daughter plates were completed on the Biomek FX instrument which transferred 5 µL of drug solution from each well of a mother plate to the corresponding well of each daughter plate in a single step. A standardized inoculum of each test organism was prepared per CLSI methods (1). The inoculum for each organism was dispensed into sterile reservoirs divided by length (Beckman Coulter), and the Biomek 2000 was used to inoculate the plates. Daughter plates were placed on the Biomek 2000 work surface in reverse orientation so that inoculation took place from low to high drug concentration.
# (§7) Plates were stacked 3-4 high, covered with a lid on the top plate, placed in plastic bags, and incubated at 35° C. for 16 to 20 hrs. Following incubation, the microplates were removed from the incubator and viewed from the bottom using a plate viewer. […] The MIC was read and recorded as the lowest concentration of drug that inhibited visible growth of the organism.
# (§8) Clinical breakpoints to determine percent resistance within a given organism group were obtained from CLSI (3), with the exception of colistin for K. pneumoniae, Enterobacter spp., and E. coli, which are only available from EUCAST.
# [2] = system: Enterococcus faecium isolates (n = 104); experiment: Broth microdilution MIC, clinical isolate panel; format: cell-based; details: Enterococcus faecium (n = 104)
# Description: as §1, §2, §3, §4, §5, §6, §7, §8
# [3] = system: Enterobacter spp. isolates (n = 102); experiment: Broth microdilution MIC, clinical isolate panel; format: cell-based, Enterobacter aerogenes and E. cloacae; details: Enterobacter spp. (n = 102)
# Description: as §1, §2, §3, §4, §5
# The daughter plates were loaded with 185 μL per well of MHB II using the Multidrop 384. The daughter plates were completed on the Biomek FX instrument which transferred 5 µL of drug solution from each well of a mother plate to the corresponding well of each daughter plate in a single step. […]
# Plates were stacked 3-4 high, covered with a lid on the top plate, placed in plastic bags, and incubated at 35° C. for 16 to 20 hrs. […] The MIC was read and recorded as the lowest concentration of drug that inhibited visible growth of the organism. […]
# [4] = system: Enterococcus faecalis ATCC 29212 (VSE; QC); experiment: Broth microdilution MIC (Table 2); format: cell-based
# Description: (§9) Each peptide was formulated in PBS buffer prior to testing. Peptides of SEQ ID NO:5 and SEQ ID NO:8 were brought up in 100% DMSO with 0.002% polysorbate-80 at 1.28 mg/mL (40× the highest final test concentration of 32 mcg/mL). Final test concentration of DMSO was 2.5% in the assay at the first dilution for those two compounds.
# (§10) Mueller Hinton II broth (MHB II; BD; Lot Nos. 6258541 and 7143896) was used for MIC testing of aerobic organisms. 0.002% polysorbate 80 (P80) was added to the test medium.
# as §4
# as §5, with “serial peptide” for “serial drug”, “of peptide.” for “of drug.”
# as §6, with “5 uL” for “5 µL”, “of peptide” for “of drug”, “CLSI methods.” for “CLSI methods (1).”, “concentration. The plates were then inoculated with 10 μL of the inoculum resulting in a final cell density of approximately 5×10^5 CFU/mL, per well.” for “concentration.”
# (§11) Plates were stacked 3-4 high, covered with a lid on the top plate, placed in plastic bags, and incubated at 35° C. for 16 to 20 hrs. Following incubation, the microplates were removed from the incubator and viewed from the bottom using a plate viewer. […] The MIC was read and recorded as the lowest concentration of peptide that inhibited visible growth of the organism.
# [5] = system: Acinetobacter baumannii ATCC 19606 (non-MDR); experiment: Broth microdilution MIC (Table 2); format: cell-based
# Description: as §9, §10, §4
# as §5, with “serial peptide” for “serial drug”, “of peptide.” for “of drug.”
# as §6, with “5 uL” for “5 µL”, “of peptide” for “of drug”, “CLSI methods.” for “CLSI methods (1).”, “concentration. The plates were then inoculated with 10 μL of the inoculum resulting in a final cell density of approximately 5×10^5 CFU/mL, per well.” for “concentration.”
# as §11
# [6] = system: Streptococcus pyogenes ATCC 49399; experiment: Broth microdilution MIC (Table 2); format: cell-based
# Description: as §9, §10, §4
# as §5, with “serial peptide” for “serial drug”, “of peptide.” for “of drug.”
# as §6, with “5 uL” for “5 µL”, “of peptide” for “of drug”, “CLSI methods.” for “CLSI methods (1).”, “concentration. The plates were then inoculated with 10 μL of the inoculum resulting in a final cell density of approximately 5×10^5 CFU/mL, per well.” for “concentration.”
# as §11
# [7] = system: Enterococcus faecalis ATCC 700802 (V583 VRE); experiment: Broth microdilution MIC (Table 2); format: cell-based
# Description: as §9, §10, §4
# as §5, with “serial peptide” for “serial drug”, “of peptide.” for “of drug.”
# as §6, with “5 uL” for “5 µL”, “of peptide” for “of drug”, “CLSI methods.” for “CLSI methods (1).”, “concentration. The plates were then inoculated with 10 μL of the inoculum resulting in a final cell density of approximately 5×10^5 CFU/mL, per well.” for “concentration.”
# as §11
# [8] = system: Streptococcus agalactiae ATCC 13813; experiment: Broth microdilution MIC (Table 2); format: cell-based; details: ATCC13813
# Description: as §9, §10, §4
# as §5, with “serial peptide” for “serial drug”, “of peptide.” for “of drug.”
# as §6, with “5 uL” for “5 µL”, “of peptide” for “of drug”, “CLSI methods.” for “CLSI methods (1).”, “concentration. The plates were then inoculated with 10 μL of the inoculum resulting in a final cell density of approximately 5×10^5 CFU/mL, per well.” for “concentration.”
# as §11
# [9] = system: Enterococcus faecium ATCC 51559 (VRE); experiment: Broth microdilution MIC (Table 2); format: cell-based
# Description: as §9, §10, §4
# as §5, with “serial peptide” for “serial drug”, “of peptide.” for “of drug.”
# as §6, with “5 uL” for “5 µL”, “of peptide” for “of drug”, “CLSI methods.” for “CLSI methods (1).”, “concentration. The plates were then inoculated with 10 μL of the inoculum resulting in a final cell density of approximately 5×10^5 CFU/mL, per well.” for “concentration.”
# as §11
# [10] = system: Staphylococcus aureus ATCC 43300 (MRSA); experiment: Broth microdilution MIC (Table 2); format: cell-based
# Description: as §9, §10, §4
# as §5, with “serial peptide” for “serial drug”, “of peptide.” for “of drug.”
# as §6, with “5 uL” for “5 µL”, “of peptide” for “of drug”, “CLSI methods.” for “CLSI methods (1).”, “concentration. The plates were then inoculated with 10 μL of the inoculum resulting in a final cell density of approximately 5×10^5 CFU/mL, per well.” for “concentration.”
# as §11
# [11] = system: Pseudomonas aeruginosa ATCC 27853 (non-MDR; QC); experiment: Broth microdilution MIC (Table 2); format: cell-based
# Description: as §9, §10, §4
# as §5, with “serial peptide” for “serial drug”, “of peptide.” for “of drug.”
# as §6, with “5 uL” for “5 µL”, “of peptide” for “of drug”, “CLSI methods.” for “CLSI methods (1).”, “concentration. The plates were then inoculated with 10 μL of the inoculum resulting in a final cell density of approximately 5×10^5 CFU/mL, per well.” for “concentration.”
# as §11
# [12] = system: Staphylococcus aureus NRS382 (USA100; HA-MRSA); experiment: Broth microdilution MIC (Table 2); format: cell-based
# Description: as §9, §10, §4
# as §5, with “serial peptide” for “serial drug”, “of peptide.” for “of drug.”
# as §6, with “5 uL” for “5 µL”, “of peptide” for “of drug”, “CLSI methods.” for “CLSI methods (1).”, “concentration. The plates were then inoculated with 10 μL of the inoculum resulting in a final cell density of approximately 5×10^5 CFU/mL, per well.” for “concentration.”
# as §11
# [13] = system: Acinetobacter baumannii ATCC BAA-1797 (MDR); experiment: Broth microdilution MIC (Table 2); format: cell-based
# Description: as §9, §10, §4
# as §5, with “serial peptide” for “serial drug”, “of peptide.” for “of drug.”
# as §6, with “5 uL” for “5 µL”, “of peptide” for “of drug”, “CLSI methods.” for “CLSI methods (1).”, “concentration. The plates were then inoculated with 10 μL of the inoculum resulting in a final cell density of approximately 5×10^5 CFU/mL, per well.” for “concentration.”
# as §11
# [14] = system: Staphylococcus aureus ATCC 29213 (MSSA; QC); experiment: Broth microdilution MIC (Table 2); format: cell-based
# Description: as §9, §10, §4
# as §5, with “serial peptide” for “serial drug”, “of peptide.” for “of drug.”
# as §6, with “5 uL” for “5 µL”, “of peptide” for “of drug”, “CLSI methods.” for “CLSI methods (1).”, “concentration. The plates were then inoculated with 10 μL of the inoculum resulting in a final cell density of approximately 5×10^5 CFU/mL, per well.” for “concentration.”
# as §11
# [15] = system: Streptococcus pneumoniae ATCC 49619 (QC); experiment: Broth microdilution MIC (Table 2); format: cell-based
# Description: as §9, §10, §4
# as §5, with “serial peptide” for “serial drug”, “of peptide.” for “of drug.”
# as §6, with “5 uL” for “5 µL”, “of peptide” for “of drug”, “CLSI methods.” for “CLSI methods (1).”, “concentration. The plates were then inoculated with 10 μL of the inoculum resulting in a final cell density of approximately 5×10^5 CFU/mL, per well.” for “concentration.”
# as §11
# [16] = system: Klebsiella pneumoniae isolates (n = 101); experiment: Broth microdilution MIC, clinical isolate panel; format: cell-based; details: Klebsiella pneumoniae (n = 101)
# Description: as §1, §2, §3, §4, §5, §6, §7, §8
# [17] = system: Pseudomonas aeruginosa isolates (n = 109); experiment: Broth microdilution MIC, clinical isolate panel; format: cell-based; details: Pseudomonas aeruginosa (n = 109)
# Description: as §1, §2, §3, §4, §5, §6, §7, §8
# [18] = system: Escherichia coli isolates (n = 101); experiment: Broth microdilution MIC, clinical isolate panel; format: cell-based; details: Escherichia coli (n = 101)
# Description: as §1, §2, §3, §4, §5, §6, §7, §8
# [19] = system: Acinetobacter spp. isolates (n = 104); experiment: Broth microdilution MIC, clinical isolate panel; format: cell-based; details: Acinetobacter spp. (n = 104)
# Description: as §1, §2, §3, §4, §5, §6, §7, §8
Compound,"% R (percent of isolates resistant, clinical breakpoints) ([1]; Staphylococcus aureus (n = 104), all methicillin-resistant)","MIC ([1]; Staphylococcus aureus, read-out: Mode (MIC))","% R (percent of isolates resistant, clinical breakpoints) [2]","% R (percent of isolates resistant, clinical breakpoints) [3]",MIC [4],MIC [5],MIC [6],MIC [7],MIC [8],MIC [9],MIC [10],MIC [11],MIC [12],MIC [13],MIC [14],MIC [15],"% R (percent of isolates resistant, clinical breakpoints) [16]","% R (percent of isolates resistant, clinical breakpoints) [17]","% R (percent of isolates resistant, clinical breakpoints) [18]","% R (percent of isolates resistant, clinical breakpoints) [19]"
CN[C@H](CC(C)C)C(=O)N[C@H]1C(=O)N[C@@H](CC(N)=O)C(=O)N[C@H]2C(=O)N[C@H]3C(=O)N[C@H](C(=O)N[C@H](C(=O)O)c4cc(O)cc(O)c4-c4cc3ccc4O)[C@H](O)c3ccc(c(Cl)c3)Oc3cc2cc(c3O[C@@H]2O[C@H](CO)[C@@H](O)[C@H](O)[C@H]2O[C@H]2C[C@](C)(N)[C@H](O)[C@H](C)O2)Oc2ccc(cc2Cl)[C@H]1O [Vancomycin],0%,1 µg/mL,47.1%,,,,,,,,,,,,,,,,,
Colistin,,,,5.8%,>32 µg/mL,0.25 µg/mL,>32 µg/mL,>32 µg/mL,>32 µg/mL,>32 µg/mL,>32 µg/mL,0.25 µg/mL,>32 µg/mL,0.25 µg/mL,>32 µg/mL,>32 µg/mL,27.7%,7.3%,0%,20.2%
